Patent US20160002247A1, “8-SUBSTITUTED IMIDAZOPYRIMIDINONE DERIVATIVE HAVING AUTOTAXIN INHIBITORY ACTIVITY” (THE UNIVERSITY OF TOKYO, priority 2013, published 2016)

These compounds were tested against T1, Human autotaxin enzyme (Homo sapiens, UniProt Q13822) (assay: Evaluation of autotaxin inhibitor, Method C (Test Example 3): 18:0 Lyso PC, choline assay, Resorufin fluorescence). Details: Assay Method C (Test Example 3), human autotaxin, 18:0 Lyso PC substrate; read-out: Inhibitory Activity (autotaxin enzyme inhibitory activity, IC50 class).
T1 construct: purchased R&D System
Assay type: biochemical
Protocol: (Method C) Evaluation of Autotaxin Inhibitor
Solution B containing 100 mM Tris-HCl buffer (pH7.5), 150 mM NaCl, 5 mM MgCl2 and 0.05% Triton X-100 was prepared. Human autotaxin enzyme (purchased from R&D System) was diluted with Solution B, and 2.5 μL of which was added to a solution of test compound in DMSO. Furthermore, 2.5 μl of 200 μM 18:0 Lyso PC (purchased from Avanti Polar Lipids) in Solution B was added and allowed to react at room temperature for 2 hours. After completion of the reaction, 15 μL of the coline assay reagent (100 mM Tris-HCl buffer (pH7.5), 5 mM MgCl2, 77 μg/mL choline oxidase, 10 μg/mL peroxidase, 25 μM 10-acetyl-3,7-dihydroxyphenoxazine and excess autotaxin inhibitor) was added and allowed to react at room temperature for 20 minutes. The fluorescent dye Resorufin, which was produced by the reaction, was detected. The fluorescence was detected using ViewLux (PerkinElmer, Inc.) with an excitation wavelength of 531 nm and a fluorescence wavelength of 598 nm.
The percent inhibition of the test compound was calculated by assuming the sample with no test compound as 0% inhibition and the sample with no enzyme as 100% inhibition, and the percent inhibitions at different concentrations of the test compound were plotted to obtain a concentration-dependent curve.

SMILES	IC50
CCCCCn1c(-c2ccc(C(=O)NC(C)(C)C)cc2)cc(=O)n2cc(-c3ccc(Cl)cc3)nc12 [Compound 468]	100 to 1000 nM
CCCCCn1c(N2CCC[C@H]2C(=O)N(C)CC(N)=O)cc(=O)n2cc(-c3ccc(Cl)cc3)nc12 [Compound 704]	10 to 100 nM
Cn1c(N2C[C@H](O)C[C@H]2C(=O)NCC(=O)O)cc(=O)n2cc(-c3ccc(Cl)cc3)nc12 [Compound 773]	> 1000 nM
CCCCCn1c(-c2ccc(C(=O)Nc3ccc(OC)cc3)cc2)cc(=O)n2cc(-c3ccc(Cl)cc3)nc12 [Compound 471]	100 to 1000 nM
CCCCCn1c(N2CCC[C@H]2C(=O)NCCCN(C)C(=O)OC(C)(C)C)cc(=O)n2cc(-c3ccc(Cl)cc3)nc12 [Compound 655]	100 to 1000 nM
CCCCCn1c(N2CCC[C@@H](C(=O)NCCC(=O)O)C2)cc(=O)n2cc(-c3ccc(Cl)cc3)nc12 [Compound 624]	10 to 100 nM
CCCCCn1c(-c2cncc(OC)c2)cc(=O)n2cc(-c3ccc(Cl)cc3)nc12 [Compound 461]	10 to 100 nM
CCCCCn1c(-c2ccc(S(=O)(=O)O)cc2)cc(=O)n2cc(-c3ccc(Cl)cc3)nc12 [Compound 429]	10 to 100 nM
CCCCCn1c(N2CCC[C@H]2C(=O)N[C@@H](Cc2cccc3ccccc23)C(=O)O)cc(=O)n2cc(-c3ccc(Cl)cc3)nc12 [Compound 724]	< 10 nM
CCCCCn1c(N2CCC(NC(C)=O)CC2)cc(=O)n2cc(-c3ccc(Cl)cc3)nc12 [Compound 294]	100 to 1000 nM
CCCCCn1c(N2CCNC[C@H]2C(=O)NCC(=O)O)cc(=O)n2cc(-c3ccc(Cl)cc3)nc12 [Compound 667]	10 to 100 nM
CCCCCn1c(N2CCC[C@H]2C(=O)NCCCN2CCCC2)cc(=O)n2cc(-c3ccc(Cl)cc3)nc12 [Compound 648]	> 1000 nM
CCCCCn1c(N2C[C@H](O)C[C@H]2C(=O)NCCC(=O)OCC)cc(=O)n2cc(-c3ccc(Cl)cc3)nc12 [Compound 593]	10 to 100 nM
Cn1c(N2CCC[C@H]2C(=O)N[C@H](C(=O)O)C(C)(C)C)cc(=O)n2cc(-c3ccc(Cl)cc3)nc12 [Compound 770]	100 to 1000 nM
CCCCCn1c(OC2CCN(CCN3CCOCC3)CC2)cc(=O)n2cc(-c3ccc(Cl)cc3)nc12 [Compound 542]	100 to 1000 nM
CCCCCn1c(-c2ccc(C(=O)NCCN)cc2)cc(=O)n2cc(-c3ccc(Cl)cc3)nc12 [Compound 364, N-(2-aminoethyl)-4-(2-(4-chlorophenyl)-5-oxo-8-pentyl-5,8-dihydroimidazo[1,2-a]pyrimidin-7-yl)benzamide]	10 to 100 nM
CCCCCn1c(N2CCC3(CC2)COC3)cc(=O)n2cc(-c3ccc(Cl)cc3)nc12 [Compound 716]	100 to 1000 nM
O=C(O)c1ccc(-c2cc(=O)n3cc([C@H]4CC[C@H](C(F)(F)F)CC4)nc3n2CCCC(F)(F)F)cc1 [Compound 164]	10 to 100 nM
CCCCCn1c(-c2ccc(N3C[C@@H](CNC(C)=O)OC3=O)cc2F)cc(=O)n2cc(-c3ccc(Cl)cc3)nc12 [Compound 449]	10 to 100 nM
CCCCCn1c(N2CCC[C@H]2C(=O)NCCCN(C)C)cc(=O)n2cc(-c3ccc(Cl)cc3)nc12 [Compound 646]	> 1000 nM
CCCCCn1c(N2CCC[C@H]2C(=O)NCCCOC)cc(=O)n2cc(-c3ccc(Cl)cc3)nc12 [Compound 338]	10 to 100 nM
CCCCCn1c(N2CCCC2Cc2ccccc2)cc(=O)n2cc(-c3ccc(Cl)cc3)nc12 (centres unmarked) [Compound 320]	100 to 1000 nM
CCCCCn1c(-c2ccc(C(=O)NCCCO)cc2)cc(=O)n2cc(-c3ccc(Cl)cc3)nc12 [Compound 481]	10 to 100 nM
CCCCCn1c(-c2ccccn2)cc(=O)n2cc(-c3ccc(Cl)cc3)nc12 [Compound 528]	100 to 1000 nM
CCCCCn1c(N2CCC[C@H]2C(=O)NCCCCCN(C)C)cc(=O)n2cc(-c3ccc(Cl)cc3)nc12 [Compound 653]	100 to 1000 nM
CCCCCn1c(OC[C@H]2CCCN2C(=O)OC(C)(C)C)cc(=O)n2cc(-c3ccc(Cl)cc3)nc12 [Compound 555]	10 to 100 nM
CCCCCn1c(N2CCC[C@H]2C(=O)NCCCN2CCCC2=O)cc(=O)n2cc(-c3ccc(Cl)cc3)nc12 [Compound 642]	10 to 100 nM
CCCCCn1c(N2CCC[C@H]2C(=O)N[C@@H](CCc2ccccc2)C(=O)O)cc(=O)n2cc(-c3ccc(Cl)cc3)nc12 [Compound 735]	< 10 nM

SMILES	IC50
CCCCCn1c(N2CCC[C@H]2C(=O)NCCC(=O)O)cc(=O)n2cc(-c3ccc(Cl)cc3)nc12 [Compound 326]	< 10 nM
Cn1c(N2C[C@H](O)C[C@H]2C(=O)N[C@@H](Cc2ccccc2)C(=O)O)cc(=O)n2cc(-c3ccc(Cl)cc3)nc12 [Compound 772]	100 to 1000 nM
CCCCCn1c(N2CCC[C@H]2C(=O)N[C@H](C(=O)O)C(C)C)cc(=O)n2cc(-c3ccc(Cl)cc3)nc12 [Compound 723]	< 10 nM
CCCCCn1c(-c2cnc(C(=O)NCCC(=O)O)nc2)cc(=O)n2cc(-c3ccc(Cl)cc3)nc12 [Compound 536]	< 10 nM
CCCCCn1c(N2CCNC(=O)C2)cc(=O)n2cc(-c3ccc(Cl)cc3)nc12 [Compound 293]	100 to 1000 nM
CCCCCn1c(N2CCC[C@H]2C(=O)NC2(C(=O)OC)CC2)cc(=O)n2cc(-c3ccc(Cl)cc3)nc12 [Compound 693]	10 to 100 nM
CCCCCn1c(N2CCC[C@H]2C(=O)N[C@H](C)C(=O)O)cc(=O)n2cc(-c3ccc(Cl)cc3)nc12 [Compound 678]	10 to 100 nM
CCCCCn1c(N2CCC[C@H]2C(=O)NC(C)(C)C(=O)O)cc(=O)n2cc(-c3ccc(Cl)cc3)nc12 [Compound 674]	< 10 nM
CCCCCn1c(-c2ccc(C(=O)NCCC#N)cc2)cc(=O)n2cc(-c3ccc(Cl)cc3)nc12 [Compound 465]	10 to 100 nM
CCCCCn1c(N2CCN(C(=O)OC(C)(C)C)C(C(=O)O)C2)cc(=O)n2cc(-c3ccc(Cl)cc3)nc12 (centres unmarked) [Compound 639]	100 to 1000 nM
CCCCCn1c(N2CCNC(C(=O)NCC(=O)O)C2)cc(=O)n2cc(-c3ccc(Cl)cc3)nc12 (centres unmarked) [Compound 665]	10 to 100 nM
CCCCCn1c(-c2ccc(C(=O)O)cc2)cc(=O)n2cc(-c3ccc(Cl)cc3)nc12 [Compound 362, 4-(2-(4-chlorophenyl)-5-oxo-8-pentyl-5,8-dihydroimidazo[1,2-a]pyrimidin-7-yl)benzoic acid]	10 to 100 nM
CCCCCn1c(-c2ccc(NC(C)=O)cc2)cc(=O)n2cc(-c3ccc(Cl)cc3)nc12 [Compound 434]	100 to 1000 nM
CCCCCn1c(N2C[C@@H](O)C[C@H]2C(=O)N[C@@H](C)C(=O)O)cc(=O)n2cc(-c3ccc(Cl)cc3)nc12 [Compound 779]	< 10 nM
O=C(O)CNC(=O)[C@@H]1CCCN1c1cc(=O)n2cc(-c3ccc(Cl)cc3)nc2n1Cc1ccccc1 [Compound 744]	10 to 100 nM
CCCCCn1c(N2CCN(CCC(=O)c3ccc4[nH]c(=O)oc4c3)CC2)cc(=O)n2cc(-c3ccc(Cl)cc3)nc12 [Compound 190]	10 to 100 nM
CCCCCn1c(N2CCC[C@@H]2CC(=O)NCCC(=O)O)cc(=O)n2cc(-c3ccc(Cl)cc3)nc12 [Compound 622]	100 to 1000 nM
CCn1c(N2C[C@H](O)C[C@H]2C(=O)N[C@H](C(=O)O)C(C)(C)C)cc(=O)n2cc(-c3ccc(Cl)cc3)nc12 [Compound 764]	10 to 100 nM
CCCCCn1c(-c2cnc(CNC(=O)[C@H](O)CO)nc2)cc(=O)n2cc(-c3ccc(Cl)cc3)nc12 [Compound 531]	< 10 nM
CCCCCn1c(N2CCC[C@H]2C(=O)N2CCC[C@@H](C(=O)O)C2)cc(=O)n2cc(-c3ccc(Cl)cc3)nc12 [Compound 673]	< 10 nM
CCCCCn1c(OC)cc(=O)n2cc(-c3ccc(Cl)cc3)nc12 [Compound 558]	100 to 1000 nM
CCCCCn1c(N2CCC[C@H]2C(=O)N(C)CC(=O)O)cc(=O)n2cc(-c3ccc(Cl)cc3)nc12 [Compound 353]	< 10 nM
CCCCCn1c(N2CCN(C(C)=O)CC2)cc(=O)n2cc(-c3ccc(Cl)cc3)nc12 [Compound 242]	10 to 100 nM
CCCCCn1c(N2CCC[C@H]2C(=O)NC(C)(C)CC(=O)O)cc(=O)n2cc(-c3ccc(Cl)cc3)nc12 [Compound 350]	< 10 nM
CCCCCn1c(N2CCC[C@H](C(=O)OCC)C2)cc(=O)n2cc(-c3ccc(Cl)cc3)nc12 [Compound 671]	100 to 1000 nM
CCCCCn1c(-c2ccc(C(=O)Nc3ncco3)cc2)cc(=O)n2cc(-c3ccc(Cl)cc3)nc12 [Compound 488]	10 to 100 nM
CCCCCn1c(N2CCC[C@H]2C(=O)NCCN(C)C)cc(=O)n2cc(-c3ccc(Cl)cc3)nc12 [Compound 645]	100 to 1000 nM

Same assay, conditions: Assay Method C, human autotaxin, 18:0 Lyso PC substrate; read-out: Inhibitory Activity

SMILES	IC50
CCCCCn1c(N2CCCCC2CC)cc(=O)n2cc(-c3ccc(Cl)cc3)nc12 (centres unmarked) [Compound 802]	> 1000 nM
Cn1c(N2CCC[C@H]2C(=O)NC(C)(C)C(=O)O)cc(=O)n2cc(-c3ccc(Cl)cc3)nc12 [Compound 780]	100 to 1000 nM
CCCCCn1c(N2CCC[C@H]2C(=O)NCc2c[nH]nn2)cc(=O)n2cc(-c3ccc(Cl)cc3)nc12 [Compound 790]	< 10 nM
CCCCCn1c(N2CCCC(C)(C)C2)cc(=O)n2cc(-c3ccc(Cl)cc3)nc12 [Compound 804]	> 1000 nM
CN(CCC#N)C(=O)Cc1cn(CCCC(F)(F)F)c2nc(-c3ccc(Cl)cc3)cn2c1=O [Compound 831]	100 to 1000 nM
CCCCCn1c(N2CCCCC2c2ccccc2)cc(=O)n2cc(-c3ccc(Cl)cc3)nc12 (centres unmarked) [Compound 803]	> 1000 nM
CCCCCn1c(N2CCCCC2CCN2CCOCC2)cc(=O)n2cc(-c3ccc(Cl)cc3)nc12 (centres unmarked) [Compound 805]	100 to 1000 nM
